Like-named read-outs stand apart in the source and are kept apart here.
Experiments:
PNPLA3 I148M = target: T1, PNPLA3 I148M (Homo sapiens, UniProt Q9NST1, I148M); assay: Western blot anti-PNPLA3, Huh7 PNPLA3 I148M; type: cell-based; design: host or cells: Huh7; settings: 5µM; 24h; two independent Western Blots, Mean +/- Stdev
T1 sequence (Q9NST1 1-481 I148M): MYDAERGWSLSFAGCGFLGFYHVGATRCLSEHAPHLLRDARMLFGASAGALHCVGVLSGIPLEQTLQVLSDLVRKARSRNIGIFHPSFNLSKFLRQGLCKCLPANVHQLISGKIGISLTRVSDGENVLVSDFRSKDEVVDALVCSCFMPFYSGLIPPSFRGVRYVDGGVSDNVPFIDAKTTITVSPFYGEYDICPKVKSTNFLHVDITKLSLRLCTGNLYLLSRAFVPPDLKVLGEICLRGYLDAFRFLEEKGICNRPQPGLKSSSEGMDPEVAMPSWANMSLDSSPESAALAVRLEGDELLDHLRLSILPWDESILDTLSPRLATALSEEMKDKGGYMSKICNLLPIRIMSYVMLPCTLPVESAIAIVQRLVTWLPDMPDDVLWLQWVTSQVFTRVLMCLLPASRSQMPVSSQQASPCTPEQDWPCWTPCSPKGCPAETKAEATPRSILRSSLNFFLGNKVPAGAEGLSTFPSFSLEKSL
Method: For SDS-PAGE and subsequent western blotting cells were harvested in 1x lysis buffer (50 mM Tris-Cl, pH 7.5, 150 mM NaCl, 1 mM EDTA, 1% Triton X-100) supplemented with complete mini protease inhibitor cocktail (Roche). Total protein concentration of samples was determined with a Bicinchoninic Acid (BCA) protein assay. Cell lysates were boiled for 10 min at 99°C with 1x NuPAGE LDS Sample Buffer and loaded onto a 4-12% Tris-Glycine SDS-PAGE gel. For immunoblotting proteins were transferred to a nitrocellulose membrane (0.2 μm pore size, Schleicher & Schuell) and blocked with Intercept (PBS) Blocking buffer (Licor), incubated with primary antibodies anti-PNPLA3 (1:500, C-8 Santa Cruz, SC-390252), anti-PNPLA3 (1:1000, Millipore, MABS2174) and anti-HSP90 (1:1000, Cell Signaling, #4877), and subsequently incubated with secondary antibodies IRDye 680 or IRDye 800 (1:2000; LI-COR Biosciences). Infrared signal was detected using the Odyssey imaging system (Licor). […]
a. Huh7, PNPLA3 I148M b. Huh7, PNPLA3 I148M-tagRFP […]
control NUV-244 control NUV-244
Supplemental Fig. 9: Western Blot NUV-244 a. […] PNPLA3 bands at 53kDa (unmodified in a.) or 80 kDa (PNPLA3 I148M-tagRFP) were quantified (signal above local background, normalized to loading control using LICOR Odyssey CLx / Image Studio) on two independent Western Blots and percent of intensity compared to DMSO controls calculated (Mean +/ - Stdev). […]

PNPLA3 I148M-tagRFP = target: T2, PNPLA3 I148M-tagRFP (Homo sapiens, UniProt Q9NST1, I148M); assay: Huh7 PNPLA3 I148M-tagRFP reduction on lipid droplets (high-content imaging); type: cell-based
T2 construct: host or cells: Huh7
T2 sequence (Q9NST1 1-481 I148M): T1 sequence (Q9NST1 1-481 I148M)
Method: For dose-response cells were seeded at 4000 c/30 μl per well in 384 well plates (Revvity, Waltham, MA, USA, PhenoPlate 384-well microplate, #6057308) and stored in a 37°C incubator with 5% CO2 and 95% humidity overnight. Compounds, serially diluted, and DMSO controls were added, and cells were incubated for another 24h. Cells were fixed and stained with a mixture of Paraformaldehyde (final 1%, Electron Microscopy Science), BODIPY (final 38 nM, Invitrogen) and Hoechst 33342 (final 2 μg/ml, Biotium) diluted in PBS for 30 min at room temperature in the dark (no wash off).
Confocal images were acquired using the Opera Phenix system (Revvity, USA) with a 10x, 20x or 40x water objective and excitation at 405 nm (Hoechst), 488 nm (BODIPY), and 532 nm (PNPLA3 I148M-tagRFP).
Images were analyzed using Harmony (Revvity) and MetaXpress software (Molecular Devices, USA) to quantify lipid droplet morphology and PNPLA3 I148M-tagRFP intensity.
Assay plates were evaluated based on Z’ scores (>0.6) and signal-to-background ratio (>12) using Genedata Screener® for HTS and Condoseo modules (Genedata, Switzerland). Normalization, quality control, and fitting curves for EC50 determination of tested compounds were performed with Genedata Screener® for high-content screening and Genedata Condoseo modules (Genedata AG, Basel, Switzerland). More than 820K cpds were screened on 791 1536W plates in 11 runs covering three weeks of primary HTS. Automated image analysis routines were set up to quantify the number, morphology and intensity of nuclei, lipid droplets and the intensity of PNPLA3 I148M-tagRFP on lipid droplets. Toxic or autofluorescent compounds were excluded from the hitlist based on nuclear count, area, and intensity measurements as well as lipid droplet staining intensity compared to control cells.

Huh7 cells = assay: Incucyte growth curves, Huh7; type: cell-based, human; settings: 1μM or 5μM; compared to DMSO
Method: (§1) Huh7, Huh7 PNPLA3 I148M, Huh7 PNPLA3, Hep3b and LX-2 cells were seeded at a concentration of 1000 cells/well in 60 μl of growth medium on 384-well microtiter plates (Revvity, Waltham, MA, USA, PhenoPlate 384-well microplate, #6057308) and stored in a 37°C incubator with 5% CO2 and 95% humidity overnight. Next day cells were treated with DMSO as control (1% final concentration) or compound (1μM or 5μM final concentration) and cell density was recorded in the Incucyte® life cell imager (Sartorius, Göttingen, Germany) every 4 hours over a period of 5 days. Growth curves were generated by monitoring confluence over time. Proliferative capacity of PNPLA3 I148M-expressing cells was compared to control cells, and the restoration of proliferative fitness was analyzed.

[1] = tested on: Huh7 cells expressing unmodified PNPLA3 I148M; assay: Incucyte growth curves, Huh7 expressing PNPLA3 I148M; type: cell-based, human; settings: 1μM or 5μM
Method: as §1

Hep3B cells = assay: Incucyte growth curves, Hep3B; type: cell-based, human; settings: 1μM or 5μM; compared to DMSO
Method: as §1

PNPLA3 band, percent of intensity compared to DMSO controls (PNPLA3 I148M): 67+/-12% | EC50 (PNPLA3 I148M-tagRFP; HTS batch (hit), 24h, two independent determinations, read-out: EC50 Huh7, PNPLA3 I148M-tagRFP reduction): 2.28e-07 ± 3.1e-08 M | EC50 (PNPLA3 I148M-tagRFP; representative dose-response curve, Figure 2D, read-out: EC50 [M] Huh7, PNPLA3-I148M-tagRFP): 2.05e-07 M | EC50 (PNPLA3 I148M-tagRFP; representative dose-response curve, Figure 3B, read-out: EC50 [M] Huh7, PNPLA3 I148M-tagRFP): 3.51e-07 M | EC50 (PNPLA3 I148M-tagRFP; resynthesis, representative curve, Figure 4C, read-out: EC50 [M] Huh7, PNPLA3 I148M-tagRFP intensity on lipid droplets): 3.8e-07 M
Compound: Cc1cccc(Cc2nc(C)c(C(=O)Nc3cc(O)ccc3Cl)s2)c1 [NUV-244]
effect on proliferative capacity, Huh7 (Huh7 cells): no effects | proliferative fitness of Huh7 cells expressing PNPLA3 I148M [1]: restored | effect on proliferative capacity, Hep3B (Hep3B cells): no effects

Reference: publication PMC12049818, “Identification of NUV-244 as a PNPLA3 I148M degrading small molecule” (iScience, 2025)
